# Reference: patent US20260183209A1, “USE OF SANDALORE FOR IMPROVING THE STRUCTURE OF HAIR” (WELLA GERMANY GMBH, priority 2022, published 2026)
# Tests used:
# [1] = test system: hair follicles of ex vivo human scalp skin culture; assay: Cross-section / hair shaft diameter in ex vivo human scalp skin culture; format: cell-based
# Description: (§1) The “cross-section” or “diameter” of hair is determined by the microscopic sectioned, newly formed hair shaft diameter in the keratogenous region (in a distance of around 200-350 μm from the ‘germative matrix’). In an ex vivo human scalp skin culture and treatment, 6 mm skin punches (hairy skin from a healthy donor) were made following the hair growth orientation and maintained in normoxic (37° C., 5% CO2) condition. After 24 h resting (and then keeping) the culture in an Air-Liquid Interphase, two topical treatment were performed (day 1 and 3). Punches were embedded in an optimal cutting temperature compound after 5 days of ex vivo culture and cryosectioned (7 μm sections). The average value is calculated from 5 independent measurements for each hair follicle (HF).
# In an ex vivo human scalp skin culture, punches (hairy skin from a human donors) were twice (day 1 and 3) treated topically, and analysed via crysectioning after 5 days. The average value for each hair follicle (HF) is calculated from 5 independent measurements, and the following table indicates the mean of all average values over the total number of hair follices (#HFs) measured.
# [2] = molecular target: T1, olfactory receptor OR2AT4 (Homo sapiens, UniProt A6NND4); details: receptor expressed in the epithelium of human hair follicles; cited from earlier work
# T1 sequence (A6NND4 1-320): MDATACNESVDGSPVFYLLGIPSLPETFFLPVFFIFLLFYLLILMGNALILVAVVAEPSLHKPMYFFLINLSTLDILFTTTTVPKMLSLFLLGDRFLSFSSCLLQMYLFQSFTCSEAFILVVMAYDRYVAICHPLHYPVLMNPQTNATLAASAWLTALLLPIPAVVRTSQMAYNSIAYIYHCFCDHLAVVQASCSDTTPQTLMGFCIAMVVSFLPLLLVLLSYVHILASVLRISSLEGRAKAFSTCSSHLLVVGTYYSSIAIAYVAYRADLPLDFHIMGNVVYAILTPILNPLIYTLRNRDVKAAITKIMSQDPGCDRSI
# keratin 85 (KRT85) = assay: Keratin 85 expression, fluorescence intensity in the precortical hair matrix of ex vivo human scalp skin sections; format: cell-based
# Description: as §1
# Expression of keratin 85 (KRT85) is set by fluorescence intensity in the precortical hair matrix with a fluorescence microscope at 20× magnification. Skin sections were co-stained o.n. at 4° C. with a guinea pig anti-KRT85 antibody (Progen, 1:200) followed by DAPI (IUPAC: 4′,6-Diamidino-2-phenylindol) counterstain to visualize the nuclei. The mean KRT85 expression value was calculated from all hair follicles with Image J software within each donor, and fold changes values versus vehicle group were determined.
structure (smiles),measurement,setting,value
"CC1=CCC(CCC(C)C(C)O)C1(C)C (centres unmarked) [Sandalore, 3-methyl-5-(2,2,3-trimethylcyclopent-3-en-1-yl) pentan-2-ol]",effect on hair shaft diameter as compared to vehicle,"[1]; ex vivo human scalp skin culture, vs vehicle",increases the hair shaft diameter significantly
same,hair shaft diameter,"[1]; ex vivo human scalp skin punches, topical treatment day 1 and 3, cryosectioned after 5 days, mean over all hair follicles",51.1 μm
same,effect on olfactory receptor OR2AT4,[2],stimulatory effect
same,"KRT85 expression, change vs vehicle group","keratin 85 (KRT85); fluorescence intensity, anti-KRT85 antibody staining, precortical hair matrix, mean over hair follicles",1.347 fold
same,"KRT85 expression, comparison in words","keratin 85 (KRT85); fold change values, vs vehicle group or vs Sandalore alone",significantly higher
